From patent US8883963B2 (Cadila Healthcare Limited, priority 2007, dated 2014)

Assays:
[1] = tested on: RIN5F (Rat Insulinoma) cells; assay: In vitro glucose-dependent insulin secretion (RIN5F cell assay screening protocol); type: cell-based; settings: 16.7 mM glucose load
Experimental: RIN5F (Rat Insulinoma) cells were cultured in RPMI 1640 medium supplemented with sodium pyruvate (1 mM) HEPES and Glucose (4.5 g/L) in a humidified incubator (5% CO2), at 37° C. After trypsinization, RIN5F cells were seeded at a concentration of 0.2×10^6 cells per well, in 12 well plates.
The buffer was replaced after 40 min. and the cells were incubated (37° C.) with the test peptidomimetics, at different concentration, for 30 min., both in the presence (16.7 mM) and absence (0 mM) of glucose load. The supernatant was collected and the insulin amount was measured by ultra sensitive Rat insulin ELISA kit (Crystal Chem, IL). The protein was estimated in the supernatant using Bicinchoninic Acid kit, according to the manufacturer's protocol (Sigma Aldrich, MO). The total insulin content obtained in Pico-gram (pg) was divided with the total protein (μg) in order to normalize for differences in cell density between wells.

human glucagon receptor = target: T1, human glucagon receptor (Homo sapiens, UniProt P47871); assay: In vitro human glucagon antagonist activity (inhibition of cAMP production) in CHO/human glucagon R cells; type: cell-based; settings: with saturated concentration of glucagon peptide
T1 construct: The full-length cDNA was cloned in pcDNA3.1 (Invitrogen); expressed in transfected cells
T1 sequence (P47871 26-477): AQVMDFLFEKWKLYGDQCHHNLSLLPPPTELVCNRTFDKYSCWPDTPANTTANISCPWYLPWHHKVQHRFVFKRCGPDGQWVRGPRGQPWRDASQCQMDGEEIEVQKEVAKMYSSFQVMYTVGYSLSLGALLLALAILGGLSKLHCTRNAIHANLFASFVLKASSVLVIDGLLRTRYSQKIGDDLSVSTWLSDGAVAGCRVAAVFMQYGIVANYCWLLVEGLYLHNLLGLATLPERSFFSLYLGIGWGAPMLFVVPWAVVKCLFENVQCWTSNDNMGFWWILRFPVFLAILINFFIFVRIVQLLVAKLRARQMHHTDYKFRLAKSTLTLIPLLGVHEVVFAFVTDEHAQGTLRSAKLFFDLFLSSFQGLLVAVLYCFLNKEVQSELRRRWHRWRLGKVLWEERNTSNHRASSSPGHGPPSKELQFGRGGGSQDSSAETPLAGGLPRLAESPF
Experimental: The CHO-K1 cells (CRL 9618) were obtained from American Type Culture Collection (Rockville, Md.). CHO cells were grown in Ham's F12 medium containing L-Glutamine (2 mM), HEPES (25 mM), NaHCO3 (1.1 g/L) and supplemented with newborn Calf Serum (NBCS; 10%), Penicillin (50 U/ml (v/v)) and Streptomycin (50 ug/ml (v/v)). Cells were split every 3 days 1:8.
The full-length cDNA was cloned in pcDNA3.1 (Invitrogen). […] Clones expressing the receptor were generated by G418 (800 μg/ml active, Sigma) selection. The stable clones were thereafter maintained at 500 ug/ml (G418). The selected clone was used between passages 9-25 for cAMP assays.
The cells were trypsinized using 2 ml of TPVG (0.25% trypsin, 0.53 mM EDTA, 1.38-mM glucose). The trypsin was inactivated using Ham's F12 medium containing 10% NBCS and the cells were suspended in 2 ml of complete medium. […] The medium was aspirated off from the 12 well plate and the cells were washed once using Ham's F12 (plain). The cells were incubated at 37° C. with 500 ul of Ham's F12+1% BSA+0.125 mM RO-20 for 30 min. […] After the incubation, the medium was removed and cells were washed once with plain Ham's F12. Subsequently, the cells were lysed by adding 500 ul of ice cold 0.1 N HCl to each well and shaking for 30 minutes at 200 rpm. The cells were then scrapped, the lysate was collected in micro centrifuge tubes and centrifuged at 12000 rpm for 10 min to remove the debris. 300 ul of supernatant from each micro-centrifuge tube was then removed into a glass tube and dried under N2 for 30 min, for cAMP estimation. The total cAMP was estimated from the sample according to the manufacturer's protocol using Cyclic AMP immunoassay kit (R&D systems, Minneapolis. MN). The remaining supernatant is used to determine the protein concentration using micro BCA (Sigma). Data is calculated as percent of control (Vehicle: water) and expressed as Mean+SD.

| SMILES | Insulin secretion ([1]; 0.1 nM test compd.) [pg/µg/h] | Insulin secretion ([1]; 1 nM test compd.) [pg/µg/h] | Insulin secretion ([1]; 10 nM test compd.) [pg/µg/h] | Human Glucagon receptor antagonistic activity shown as inhibition of cAMP production of Glucagon peptide (human glucagon receptor; 1 nM test compound) [pmol/ml/μg prt] | Human Glucagon receptor antagonistic activity shown as inhibition of cAMP production of Glucagon peptide (human glucagon receptor; 10 nM test compound) [pmol/ml/μg prt] | Human Glucagon receptor antagonistic activity shown as inhibition of cAMP production of Glucagon peptide (human glucagon receptor; 100 nM test compound) [pmol/ml/μg prt] | Human Glucagon receptor antagonistic activity shown as inhibition of cAMP production of Glucagon peptide (human glucagon receptor; 1 μM test compound) [pmol/ml/μg prt] | Human Glucagon receptor antagonistic activity shown as inhibition of cAMP production of Glucagon peptide (human glucagon receptor; 10 μM test compound) [pmol/ml/μg prt] |
| --- | --- | --- | --- | --- | --- | --- | --- | --- |
| CCc1cc(OC)ccc1-c1ccc(CC(NC(=O)[C@H](CC(=O)O)NC(=O)[C@H](CO)NC(=O)[C@@H](NC(=O)C(C)(Cc2ccccc2F)NC(=O)[C@@H](NC(=O)CNC(=O)[C@H](CCC(N)=O)NC(=O)C(C)(C)NC(=O)[C@@H](N)Cc2c[nH]cn2)[C@@H](C)O)[C@@H](C)O)C(=O)NC(CCCc2ccc(Cl)cc2C)C(N)=O)cc1 (single isomer, unassigned) [compound 40] | 12.6 ± 0.20 | 15.9 ± 0.31 | 28.4 ± 0.11 | 18 ± 0.07 | 16 ± 0.01 | 12 ± 0.03 | 8 ± 0.02 | 6 ± 0.08 |
| CCc1cc(OC)ccc1-c1ccc(CC(CNC(CCCc2ccccc2F)C(N)=O)NC(=O)[C@H](CC(=O)O)NC(=O)[C@H](CO)NC(=O)[C@@H](NC(=O)C(C)(Cc2ccccc2F)NC(=O)[C@@H](NC(=O)CNC(=O)C(CCC#N)NC(=O)C(C)(C)NC(=O)[C@@H](N)Cc2c[nH]cn2)[C@H](C)O)[C@H](C)O)cc1 (single isomer, unassigned) [compound 192] | 16.6 ± 0.41 | 22.9 ± 0.32 | 36.7 ± 0.11 | 4 ± 0.09 | 2 ± 0.12 | 0 | 0 | 0 |
| CCc1cc(OC)ccc1-c1ccc(CC(NC(=O)[C@H](CC(=O)O)NC(=O)[C@H](CO)NC(=O)[C@@H](NC(=O)C(C)(Cc2ccccc2F)NC(=O)[C@@H](NC(=O)CNC(=O)[C@H](CC(C(F)(F)F)C(F)(F)F)NC(=O)C(C)(C)NC(=O)[C@@H](N)Cc2c[nH]cn2)[C@@H](C)O)[C@H](C)O)C(=O)NC(CCCc2ccccc2)C(N)=O)cc1 (single isomer, unassigned) [compound 225] | 12.4 ± 0.22 | 15.2 ± 0.32 | 29.6 ± 0.50 | 5 ± 0.01 | 2 ± 0.17 | 0 | 0 | 0 |
| CCc1cc(OC)ccc1-c1ccc(CC(NC(=O)[C@H](CC(=O)O)NC(=O)[C@H](CO)NC(=O)[C@@H](NC(=O)C(C)(Cc2ccccc2F)NC(=O)[C@@H](NC(=O)CNC(=O)[C@H](CC(C(F)(F)F)C(F)(F)F)NC(=O)C(C)(C)NC(=O)[C@@H](N)Cc2c[nH]cn2)[C@@H](C)O)[C@@H](C)O)C(=O)NC(CCCc2ccc(Cl)cc2C)C(N)=O)cc1 (single isomer, unassigned) [compound 237] | 12.0 ± 0.14 | 14.3 ± 0.12 | 27.8 ± 0.32 | 21 ± 0.11 | 19 ± 0.02 | 18 ± 0.07 | 18 ± 0.03 | 16 ± 0.02 |
